Source: ChEMBL document CHEMBL3885861, “Open TG-GATES”

Organism: Rattus norvegicus
Assay: Open TG-GATES - Regimen: Single
Assay type: toxicity, organism-based, Sprague-Dawley
Design: regimen Single, gender Male, age 6 weeks
Details: in vivo, po, 300 mg/kg, route gavage, dose level Low; for APTT / Bas / Eos / Fbg / Hb / Ht / Lym / MCH / MCHC / MCV / Mono / Neu / PT / Plat / RBC / Ret / WBC: tissue Blood; for KIDNEY_L / KIDNEY_R / KIDNEY_TOTAL: tissue Kidney; for LIVER: tissue Liver; for A/G / ALP / ALT / AST / BUN / CRE / Ca / Cl / DBIL / GLC / IP / K / LDH / Na / PL / RALB / TBIL / TC / TG / TP / gamma-GTP: tissue Plasma

With CCN1CCCC1CNC(=O)c1cc(S(N)(=O)=O)ccc1OC (configuration not stated) [SULPIRIDE] the TERMINAL_BW (3 h) was 202.3 g, the APTT (3 h) was 16.9 s and the Bas (3 h) was 0%. For the same compound, the Eos (3 h) was 0.8%, the Fbg (3 h) was 268.2 mg/dL and the Hb (3 h) was 12.9 g/dL. For the same compound, the Ht (3 h) was 40.1%, the Lym (3 h) was 83% and the MCH (3 h) was 20.5 pg. For the same compound, the MCHC (3 h) was 32.3%, the MCV (3 h) was 63.3 fL and the Mono (3 h) was 2.6%. For the same compound, the Neu (3 h) was 12.6%, the PT (3 h) was 13.5 s and the Plat (3 h) was 123.5 x10_4/uL. The RBC (3 h) was 633 x10_4/ul, the Ret (3 h) was 8.1% and the WBC (3 h) was 80.2 x10_2/uL. The KIDNEY_L (3 h) was 0.9 g, the KIDNEY_R (3 h) was 0.9 g and the KIDNEY_TOTAL (3 h) was 1.9 g. For the same compound, the LIVER (3 h) was 9.4 g, the A/G (3 h) was 0.9 and the ALP (3 h) was 1455.4 IU/L. The ALT (3 h) was 35.6 IU/L, the AST (3 h) was 72.8 IU/L and the BUN (3 h) was 9.8 mg/dL. For the same compound, the CRE (3 h) was 0.2 mg/dL, the Ca (3 h) was 11.1 mg/dL and the Cl (3 h) was 105.8 meq/L. It also gave a DBIL (3 h) of 0.004 mg/dL, a GLC (3 h) of 173 mg/dL and an IP (3 h) of 8.2 mg/dL. For the same compound, the K (3 h) was 4.2 meq/L, the LDH (3 h) was 124.4 IU/L and the Na (3 h) was 141.6 meq/L. It also gave a PL (3 h) of 143.4 mg/dL, an RALB (3 h) of 2.5 g/dL and a TBIL (3 h) of 0.062 mg/dL. It also gave a TC (3 h) of 77.8 mg/dL, a TG (3 h) of 74.2 mg/dL and a TP (3 h) of 5.2 g/dL. For the same compound, the gamma-GTP (3 h) was 1.6 IU/L, the TERMINAL_BW (6 h) was 199.9 g and the APTT (6 h) was 16.7 s. For the same compound, the Bas (6 h) was 0%, the Eos (6 h) was 1% and the Fbg (6 h) was 287.4 mg/dL. It also gave a Hb (6 h) of 13.1 g/dL, a Ht (6 h) of 41.1% and a Lym (6 h) of 78%. For the same compound, the MCH (6 h) was 20.5 pg, the MCHC (6 h) was 31.9% and the MCV (6 h) was 64.2 fL. The Mono (6 h) was 2.8%, the Neu (6 h) was 17.4% and the PT (6 h) was 13.5 s. For the same compound, the Plat (6 h) was 122.9 x10_4/uL, the RBC (6 h) was 641.2 x10_4/ul and the Ret (6 h) was 8.4%. It also gave a WBC (6 h) of 95.5 x10_2/uL, a KIDNEY_L (6 h) of 0.9 g and a KIDNEY_R (6 h) of 0.9 g. The KIDNEY_TOTAL (6 h) was 1.8 g, the LIVER (6 h) was 8.9 g and the A/G (6 h) was 0.9. The ALP (6 h) was 1332.4 IU/L, the ALT (6 h) was 36.4 IU/L and the AST (6 h) was 68.4 IU/L. The BUN (6 h) was 9.6 mg/dL, the CRE (6 h) was 0.2 mg/dL and the Ca (6 h) was 11 mg/dL. For the same compound, the Cl (6 h) was 104.8 meq/L, the DBIL (6 h) was 0.01 mg/dL and the GLC (6 h) was 179.4 mg/dL. The IP (6 h) was 9.4 mg/dL, the K (6 h) was 4.3 meq/L and the LDH (6 h) was 125.8 IU/L. The Na (6 h) was 141.2 meq/L, the PL (6 h) was 137.6 mg/dL and the RALB (6 h) was 2.5 g/dL. For the same compound, the TBIL (6 h) was 0.074 mg/dL, the TC (6 h) was 75.4 mg/dL and the TG (6 h) was 59 mg/dL. The TP (6 h) was 5.2 g/dL, the gamma-GTP (6 h) was 1.2 IU/L and the TERMINAL_BW (9 h) was 198.2 g. It also gave an APTT (9 h) of 16.3 s, a Bas (9 h) of 0.2% and an Eos (9 h) of 0.8%. For the same compound, the Fbg (9 h) was 287.2 mg/dL, the Hb (9 h) was 13.3 g/dL and the Ht (9 h) was 41%. The Lym (9 h) was 77.4%, the MCH (9 h) was 20.6 pg and the MCHC (9 h) was 32.3%. It also gave an MCV (9 h) of 63.7 fL, a Mono (9 h) of 2.4% and a Neu (9 h) of 19%. The PT (9 h) was 13.4 s, the Plat (9 h) was 129.5 x10_4/uL and the RBC (9 h) was 644.4 x10_4/ul. For the same compound, the Ret (9 h) was 7.6%, the WBC (9 h) was 83.6 x10_2/uL and the KIDNEY_L (9 h) was 0.9 g. The KIDNEY_R (9 h) was 0.9 g, the KIDNEY_TOTAL (9 h) was 1.8 g and the LIVER (9 h) was 7.7 g. It also gave an A/G (9 h) of 0.9, an ALP (9 h) of 1287.4 IU/L and an ALT (9 h) of 34.4 IU/L. For the same compound, the AST (9 h) was 70.4 IU/L, the BUN (9 h) was 7.4 mg/dL and the CRE (9 h) was 0.1 mg/dL. For the same compound, the Ca (9 h) was 10.4 mg/dL, the Cl (9 h) was 106.8 meq/L and the DBIL (9 h) was 0 mg/dL. It also gave a GLC (9 h) of 168.4 mg/dL, an IP (9 h) of 9.9 mg/dL and a K (9 h) of 3.7 meq/L. For the same compound, the LDH (9 h) was 116.4 IU/L, the Na (9 h) was 142.6 meq/L and the PL (9 h) was 118.4 mg/dL. For the same compound, the RALB (9 h) was 2.5 g/dL, the TBIL (9 h) was 0.07 mg/dL and the TC (9 h) was 70 mg/dL. For the same compound, the TG (9 h) was 29.8 mg/dL, the TP (9 h) was 5.2 g/dL and the gamma-GTP (9 h) was 1.2 IU/L. It also gave a TERMINAL_BW (24 h) of 215.3 g, an APTT (24 h) of 17.5 s and a Bas (24 h) of 0.2%. It also gave an Eos (24 h) of 1%, a Fbg (24 h) of 305 mg/dL and a Hb (24 h) of 13.5 g/dL. The Ht (24 h) was 41.4%, the Lym (24 h) was 78% and the MCH (24 h) was 20.9 pg. It also gave an MCHC (24 h) of 32.6%, an MCV (24 h) of 64.1 fL and a Mono (24 h) of 2.6%. For the same compound, the Neu (24 h) was 17.4%, the PT (24 h) was 12.7 s and the Plat (24 h) was 130.7 x10_4/uL. It also gave an RBC (24 h) of 646 x10_4/ul, a Ret (24 h) of 7% and a WBC (24 h) of 93.3 x10_2/uL. For the same compound, the KIDNEY_L (24 h) was 0.9 g, the KIDNEY_R (24 h) was 0.9 g and the KIDNEY_TOTAL (24 h) was 1.8 g. It also gave an LIVER (24 h) of 9.9 g, an A/G (24 h) of 0.9 and an ALP (24 h) of 1728.6 IU/L. The ALT (24 h) was 44.2 IU/L, the AST (24 h) was 66.4 IU/L and the BUN (24 h) was 14.8 mg/dL. The CRE (24 h) was 0.2 mg/dL, the Ca (24 h) was 11.1 mg/dL and the Cl (24 h) was 106.4 meq/L. The DBIL (24 h) was 0.014 mg/dL, the GLC (24 h) was 180.4 mg/dL and the IP (24 h) was 7.4 mg/dL. For the same compound, the K (24 h) was 4.4 meq/L, the LDH (24 h) was 179.2 IU/L and the Na (24 h) was 141.6 meq/L. It also gave a PL (24 h) of 156.2 mg/dL, an RALB (24 h) of 2.7 g/dL and a TBIL (24 h) of 0.064 mg/dL. The TC (24 h) was 79.2 mg/dL, the TG (24 h) was 134.4 mg/dL and the TP (24 h) was 5.7 g/dL. The gamma-GTP (24 h) was 1 IU/L.
